Data set [1] relates to Mus musculus. As to the kind of experiment: Toxicity in ip dosed C57/BL6J mouse assessed as decrease in body weight. Type of data set: organism-based. Conditions: in vivo.
The target of data set [2] is T1, Carnitine O-palmitoyltransferase 1, liver isoform (Rattus norvegicus, UniProt P32198).
T1 sequence (P32198 whole entry): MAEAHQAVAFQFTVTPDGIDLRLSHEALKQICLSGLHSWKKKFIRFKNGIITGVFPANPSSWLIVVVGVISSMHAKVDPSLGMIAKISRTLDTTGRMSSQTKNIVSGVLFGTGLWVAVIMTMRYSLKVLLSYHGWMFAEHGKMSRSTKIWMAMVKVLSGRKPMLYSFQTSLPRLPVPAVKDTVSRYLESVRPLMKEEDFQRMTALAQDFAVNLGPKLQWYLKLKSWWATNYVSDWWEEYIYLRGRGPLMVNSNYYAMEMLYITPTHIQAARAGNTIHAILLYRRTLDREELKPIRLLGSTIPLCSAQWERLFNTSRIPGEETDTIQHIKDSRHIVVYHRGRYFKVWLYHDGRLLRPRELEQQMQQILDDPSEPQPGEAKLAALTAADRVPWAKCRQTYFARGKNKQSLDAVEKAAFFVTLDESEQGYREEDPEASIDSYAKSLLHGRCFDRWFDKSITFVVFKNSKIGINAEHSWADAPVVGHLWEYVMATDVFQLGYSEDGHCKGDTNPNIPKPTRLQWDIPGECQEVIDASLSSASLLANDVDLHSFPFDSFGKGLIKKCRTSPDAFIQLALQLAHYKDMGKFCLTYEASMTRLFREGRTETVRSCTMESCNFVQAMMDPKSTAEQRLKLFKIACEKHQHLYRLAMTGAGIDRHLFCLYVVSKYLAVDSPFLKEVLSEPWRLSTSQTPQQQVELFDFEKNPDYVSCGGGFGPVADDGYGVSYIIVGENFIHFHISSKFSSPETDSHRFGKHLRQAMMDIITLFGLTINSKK
Put plainly: Inhibition of rat wild-type CPT1A expressed in yeast mitochondrial extracts using L-[methyl-3H]carnitine and palmitoyl-CoA as substrates preincubated for 1 min followed by substrate addition measured for 5 mins by radiometric method.

In data set [3] the test system is Rattus norvegicus. As to the kind of experiment: Toxicity in icv dosed Sprague-Dawley rats assessed as decrease in body weight. Conditions: in vivo, icv_or_intrathecal. Type of data set: organism-based.
Another data set deals with MDA-MB-231. Put plainly: Antiproliferative activity against human MDA-MB-231 cells after 72 hrs by MTT assay. Type of data set: functional, cell-based. As to conditions: MDA-MB-231, 72 h. For orientation: Tetrazolium dyes change colour on reduction, which living cells bring about.
Data set [4] has as its system Mus musculus. As to the kind of experiment: Toxicity in C57/BL6J mouse assessed as decrease in food intake at 15 mg/kg, ip administered once daily for 3 days measured after 2 days. Type of data set: organism-based. Conditions: in vivo, 48 h.
In another data set the test system is SK-BR-3. As to the kind of experiment: Antiproliferative activity against human SKBR3 cells after 72 hrs by MTT assay. As to conditions: SK-BR-3, 72 h. It is filed as functional, cell-based.
In the next data set the test system is MCF7. As to the kind of experiment: cells. As to conditions: Homo sapiens, MCF7, 72 h.
In another data set the test system is HCT-116. Put plainly: Antiproliferative activity against human HCT116 cells after 72 hrs by MTT assay. Type of data set: functional, cell-based. Conditions: HCT-116, 72 h.
For a further data set, the system named is OVCAR-3. As to the kind of experiment: Antiproliferative activity against human OVCAR3 cells after 72 hrs by MTT assay. It is filed as functional, cell-based. Conditions: OVCAR-3, 72 h.
The target of data set [5] is Fatty acid synthase (Homo sapiens) (UniProt P49327). Conditions: 8 ug/ml.
Description: Inhibition of fatty acid synthase in human OVCAR3 cells assessed as reduction in fatty acid synthesis at 8 ug/ml pretreated for 2 hrs followed by [U14C]-acetate addition measured after 2 hrs by scintillation counting method relative to control
Another data set relates to MIA PaCa-2. As to the kind of experiment: Antiproliferative activity against human MIAPaCa2 cells after 72 hrs by MTT assay. Conditions: MIA PaCa-2, 72 h. It is filed as functional, cell-based.
For data set [6], the system named is Mus musculus. Put plainly: Toxicity in C57/BL6J mouse assessed as decrease in body weight at 15 mg/kg, ip administered once daily for 3 days measured after 2 days. Type of data set: organism-based. As to conditions: in vivo, 48 h.
For data set [7], the system named is Rattus norvegicus. Put plainly: Toxicity in Sprague-Dawley rats assessed as decrease in food intake at 30 mM, icv measured after 1 to 22 hrs. Conditions: in vivo, icv_or_intrathecal, 30000 µM.
The test system of data set [8] is Rattus norvegicus. Put plainly: Toxicity in Sprague-Dawley rats assessed as decrease in body weight at 33 mM, icv measured every day for 3 days. As to conditions: in vivo, icv_or_intrathecal, 72 h, 33000 µM.
The test system of the next data set is PC-3. Put plainly: Antiproliferative activity against human PC3 cells after 72 hrs by MTT assay. As to conditions: PC-3, 72 h. It is filed as functional, cell-based.
The test system of the next data set is Fibroblast. Put plainly: Antiproliferative activity against fibroblasts (unknown origin) after 72 hrs by MTT assay. Type of data set: cell-based.
In a further data set the target is Fatty acid synthase (Rattus norvegicus, UniProt P12785). As to the kind of experiment: Inhibition of fatty acid synthase in rat cytosolic hepatic extracts using acetyl CoA and malonyl CoA as substrate preincubated for 30 mins followed by acetyl CoA addition and subsequent incubation for 3 mins prior to malonyl CoA addition measured after 10 mins in presence of NADPH by spectrophotometric method.
Fatty acid synthase, sequence (P12785 whole entry): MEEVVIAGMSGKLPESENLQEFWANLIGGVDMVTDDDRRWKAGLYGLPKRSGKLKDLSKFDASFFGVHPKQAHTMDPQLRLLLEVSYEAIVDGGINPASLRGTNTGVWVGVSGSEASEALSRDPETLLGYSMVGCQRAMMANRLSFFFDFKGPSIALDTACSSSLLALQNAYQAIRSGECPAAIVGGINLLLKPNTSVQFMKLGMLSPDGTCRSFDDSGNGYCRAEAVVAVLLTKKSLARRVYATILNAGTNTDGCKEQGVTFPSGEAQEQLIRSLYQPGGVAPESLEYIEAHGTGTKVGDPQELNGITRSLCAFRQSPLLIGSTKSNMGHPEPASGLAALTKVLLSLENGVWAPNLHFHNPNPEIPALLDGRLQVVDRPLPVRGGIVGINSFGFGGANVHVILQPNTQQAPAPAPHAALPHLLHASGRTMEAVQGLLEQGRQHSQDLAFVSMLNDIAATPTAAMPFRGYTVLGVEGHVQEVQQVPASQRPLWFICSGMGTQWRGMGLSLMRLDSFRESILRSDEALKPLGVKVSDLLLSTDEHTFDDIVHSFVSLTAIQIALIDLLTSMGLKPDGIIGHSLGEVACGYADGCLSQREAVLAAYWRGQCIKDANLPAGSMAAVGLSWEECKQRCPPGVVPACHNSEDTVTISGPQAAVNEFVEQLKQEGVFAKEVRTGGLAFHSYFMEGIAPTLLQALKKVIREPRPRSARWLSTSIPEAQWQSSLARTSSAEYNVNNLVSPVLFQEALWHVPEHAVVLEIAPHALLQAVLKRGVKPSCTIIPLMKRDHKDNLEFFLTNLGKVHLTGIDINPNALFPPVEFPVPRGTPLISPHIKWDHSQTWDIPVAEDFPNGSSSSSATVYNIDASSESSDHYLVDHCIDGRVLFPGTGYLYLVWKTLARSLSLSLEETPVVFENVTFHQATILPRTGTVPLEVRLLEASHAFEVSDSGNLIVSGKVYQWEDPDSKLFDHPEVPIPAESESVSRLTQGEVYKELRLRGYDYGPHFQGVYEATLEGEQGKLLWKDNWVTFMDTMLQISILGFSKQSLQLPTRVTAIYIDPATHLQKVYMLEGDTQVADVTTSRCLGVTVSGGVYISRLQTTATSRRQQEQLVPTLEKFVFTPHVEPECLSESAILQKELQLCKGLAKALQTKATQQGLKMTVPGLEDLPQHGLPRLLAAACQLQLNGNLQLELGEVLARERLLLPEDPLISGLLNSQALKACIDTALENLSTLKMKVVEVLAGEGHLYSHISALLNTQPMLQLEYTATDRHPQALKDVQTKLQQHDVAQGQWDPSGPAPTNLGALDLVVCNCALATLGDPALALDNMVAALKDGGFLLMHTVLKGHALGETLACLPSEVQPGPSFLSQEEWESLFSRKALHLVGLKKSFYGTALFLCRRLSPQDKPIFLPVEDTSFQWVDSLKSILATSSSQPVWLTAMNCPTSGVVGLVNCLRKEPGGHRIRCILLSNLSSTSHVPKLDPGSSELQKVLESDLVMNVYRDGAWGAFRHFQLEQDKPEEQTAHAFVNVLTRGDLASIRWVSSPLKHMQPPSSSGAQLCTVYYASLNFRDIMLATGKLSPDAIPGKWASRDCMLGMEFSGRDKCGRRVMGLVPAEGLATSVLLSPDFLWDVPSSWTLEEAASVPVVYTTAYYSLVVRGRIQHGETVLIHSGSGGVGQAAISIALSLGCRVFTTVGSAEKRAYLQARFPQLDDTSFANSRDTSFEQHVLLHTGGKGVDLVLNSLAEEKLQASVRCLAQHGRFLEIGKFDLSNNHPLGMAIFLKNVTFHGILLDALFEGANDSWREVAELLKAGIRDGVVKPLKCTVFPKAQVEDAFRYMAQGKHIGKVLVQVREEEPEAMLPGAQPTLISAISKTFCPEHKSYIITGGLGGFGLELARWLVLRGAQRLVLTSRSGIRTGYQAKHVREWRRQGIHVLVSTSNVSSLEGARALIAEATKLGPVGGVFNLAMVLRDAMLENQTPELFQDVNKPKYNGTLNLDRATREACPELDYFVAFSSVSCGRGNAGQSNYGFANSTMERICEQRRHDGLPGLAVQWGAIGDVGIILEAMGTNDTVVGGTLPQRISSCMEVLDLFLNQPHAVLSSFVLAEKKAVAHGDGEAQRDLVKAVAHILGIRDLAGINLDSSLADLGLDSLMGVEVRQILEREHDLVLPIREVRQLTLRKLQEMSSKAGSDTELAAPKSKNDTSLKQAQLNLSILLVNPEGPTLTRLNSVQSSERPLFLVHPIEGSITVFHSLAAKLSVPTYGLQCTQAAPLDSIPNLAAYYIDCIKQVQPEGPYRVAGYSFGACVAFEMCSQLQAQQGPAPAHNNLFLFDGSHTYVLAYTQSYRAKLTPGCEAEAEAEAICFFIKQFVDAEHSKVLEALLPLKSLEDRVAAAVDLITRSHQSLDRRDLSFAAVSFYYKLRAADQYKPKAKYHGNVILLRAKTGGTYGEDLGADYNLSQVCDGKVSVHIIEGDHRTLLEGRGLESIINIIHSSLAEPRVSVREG

For data set [9], the target named is Ribosomal protein S6 kinase beta-1 (Homo sapiens) (UniProt P23443). Put plainly: Inhibition of S6K1 phosphorylation at T389 in human OVCAR3 cells at 29.74 uM after 24 hrs by Western blot analysis. Type of data set: cell-based. (In western blotting, separated proteins are transferred to a membrane and probed.)
Ribosomal protein S6 kinase beta-1 (Homo sapiens), sequence (P23443 whole entry, looked up): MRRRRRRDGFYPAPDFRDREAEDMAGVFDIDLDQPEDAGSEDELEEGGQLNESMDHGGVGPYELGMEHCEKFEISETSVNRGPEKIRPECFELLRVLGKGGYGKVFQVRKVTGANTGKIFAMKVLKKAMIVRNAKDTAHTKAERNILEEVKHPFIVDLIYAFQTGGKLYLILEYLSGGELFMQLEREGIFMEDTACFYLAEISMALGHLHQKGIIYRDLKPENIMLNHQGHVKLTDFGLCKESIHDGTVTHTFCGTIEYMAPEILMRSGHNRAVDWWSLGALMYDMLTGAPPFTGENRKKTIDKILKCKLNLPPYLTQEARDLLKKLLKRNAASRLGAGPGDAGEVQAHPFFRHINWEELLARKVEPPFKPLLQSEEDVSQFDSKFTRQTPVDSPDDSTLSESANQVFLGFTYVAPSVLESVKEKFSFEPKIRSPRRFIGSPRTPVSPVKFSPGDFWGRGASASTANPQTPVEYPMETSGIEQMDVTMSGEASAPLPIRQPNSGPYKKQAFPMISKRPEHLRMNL

Among the data in ChEMBL document CHEMBL4017443, “(-)-UB006: A new fatty acid synthase inhibitor and cytotoxic agent without anorexic side effects” (Eur J Med Chem, 2017) are Activity, IC50 and inhibition values, retold here.

Active and inactive are the calls of the source. The rule behind the calls is not given here.

By IC50 is commonly meant the midpoint of a concentration-inhibition curve. For the compound `CCCCCCCCC1OC(=O)C(CSCCNC(=O)CCNC(=O)[C@H](O)C(C)(C)COP(=O)(O)OP(=O)(O)OC[C@H]2O[C@@H](n3cnc4c(N)ncnc43)[C@H](O)[C@@H]2OP(=O)(O)O)C1CO` (mixture of isomers), the Activity entry in the data set with Mus musculus [1] and with Rattus norvegicus [3] was “Non-Toxic” each time. The compound also displayed an IC50 in data set [2] of 15.7 µM.
Broadly, the inhibition is the change of the read-out against control, counted positive when it falls. On to `C=C1C(=O)OC(CCCCCCCC)C1C(=O)O` (racemic), for which the half-maximal inhibitory concentration (IC50) is 43.8 µM in the data set with MDA-MB-231; 19.8 µM in the data set on SK-BR-3; 27.3 µM with MCF7; 46.4 µM in the data set on HCT-116; 21.9 µM in the data set with OVCAR-3; 21.8 µM in the data set on MIA PaCa-2. For the same compound, the half-inhibitory concentration (IC50) in the data set with PC-3 is 26.8 µM; in the data set with Fibroblast, 63.2 µM. In addition, the Activity result with Mus musculus [4], with Mus musculus [6], in the data set on Rattus norvegicus [7] and with Rattus norvegicus [8] was “Toxic” each time. Besides, the inhibition in data set [5] was found to be 38%.
With `C=C1C(=O)O[C@@H](CCCCCCCC)[C@@H]1C(=O)O`, the half-maximal inhibitory concentration (IC50) in the data set with MDA-MB-231 is 57.7 µM; on Fatty acid synthase, 440 to 498 µM; in the data set with SK-BR-3 it was 38.2 µM; in the data set with MCF7, 46.4 µM; in the data set on HCT-116 it was 74.8 µM; with OVCAR-3 it was 17.9 µM. Also, the figures for the half-maximal inhibitory concentration (IC50) in the data set on MIA PaCa-2, with PC-3 and in the data set with Fibroblast were 25.3 µM, 34.3 µM and more than 117 µM, respectively.
In the case of `C=C1C(=O)O[C@@H](CCCCCCCC)[C@@H]1CO`, the inhibition result in data set [9] was “Active”.
Turning to `CCCCCCCCC1OC(=O)C(CSCCNC(=O)CCNC(=O)[C@H](O)C(C)(C)COP(=O)(O)OP(=O)(O)OC[C@H]2O[C@@H](n3cnc4c(N)ncnc43)[C@H](O)[C@@H]2OP(=O)(O)O)C1C(=O)O` (mixture of isomers), the half-inhibitory concentration (IC50) in data set [2] worked out at 1.1 µM.
